Holding throughout (test): NCI-60 cell line screen, 48 h
Experiment [1] has as its system UACC-257 melanoma.
Experiment [2] deals with SF-268 CNS.
The subject of experiment [3] is SN12C renal.
For experiment [4], the system named is U251 CNS.
Experiment [5] has as its system K-562 leukemia.
In experiment [6] the test system is PC-3 prostate.
For experiment [7], the system named is 786-0 renal.

SMILES strings stand for the structures.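 Growth conditions: 96-well plates. Treatment: test compound, 48 hours, 5 concentrations. Analysis: linear interpolation between bracketing concentrations; unreached endpoints set to highest concentration. GI50: concentration for 50% inhibition of growth. TGI denotes the concentration required for complete inhibition of growth.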 Bounds are passed on as bounds.

On to `COc1cccc(C#Cc2ccccc2C#CCCCCO)c1`, for which the GI50 in experiment [1] was 12.5 µM; in experiment [2], 16.1 µM; in experiment [3] it was 11.6 µM; in experiment [4], 8.41 µM; in experiment [5], 1.84 µM; in experiment [6], 9.83 µM. Also, the GI50 in experiment [7] was 12.8 µM. The TGI in experiment [1] is 25.4 µM; in experiment [2], 33.5 µM; in experiment [3] it was 27 µM; in experiment [4], 22.3 µM; in experiment [5], 85.4 µM; in experiment [6] it was 23.7 µM. This molecule also showed a TGI in experiment [7] of 28 µM.

In the case of `C[C@H](O)C(=O)N1CCC(CCn2c(Sc3cc4c(cc3Br)OCO4)nc3c(N)ncnc32)CC1`, the GI50 in experiment [1] is 2.13 µM; in experiment [2] it was 8.83 µM; in experiment [3], 0.725 µM; in experiment [4], 2.14 µM; in experiment [5], 0.472 µM; in experiment [6], 1.16 µM. The GI50 in experiment [7] was 3.77 µM. For the same molecule, the TGI in experiment [1], in experiment [2], in experiment [3], in experiment [4], in experiment [5] and in experiment [6] was more than 100 µM throughout. This molecule also gave a TGI in experiment [7] of more than 100 µM.

For the molecule `COc1c(CCl)cc(-c2cc(=O)c3ccccc3s2)cc1CCl`, the TGI in experiment [1] was more than 100 µM; in experiment [2], more than 100 µM; in experiment [3], more than 100 µM; in experiment [4] it was more than 59.8 µM; in experiment [5], more than 100 µM; in experiment [6], more than 100 µM. Besides, the TGI in experiment [7] was 1.74 µM.

For `C[C@]12CC[C@@H]3c4cc(OCC(F)(F)F)c(O)cc4/C(=N/O)C[C@H]3[C@@H]1CC[C@@H]2O`, the TGI amounted to 45.5 µM in experiment [1]; 21.7 µM in experiment [2]; 48.3 µM in experiment [3]; 1.07 µM in experiment [4]; 12 µM in experiment [6]. The GI50 is 0.0213 µM in experiment [5] and 0.029 µM in experiment [7].

In the case of `COc1ccc(CCN2COc3c([C@@H](C)CCC=C(C)C)ccc(C)c3C2)cc1OC`, the GI50 in experiment [1] was 2.93 µM; in experiment [2], 1.45 µM; in experiment [3], 3.27 µM; in experiment [4], 1.91 µM; in experiment [5] it was 3.7 µM; in experiment [6], 1.95 µM. In experiment [7], the GI50 was 1.98 µM. For the same molecule, the TGI in experiment [1] worked out at 10.9 µM; in experiment [2], 4.34 µM; in experiment [3], 13.5 µM; in experiment [4], 4.47 µM; in experiment [5] it was 93.5 µM; in experiment [6], 5.83 µM. This molecule also returned a TGI in experiment [7] of 4.16 µM.

Turning to `CC(=O)C(=CN1CCN(C(=O)c2ccco2)C1=S)C(C)=O`, the GI50 was 2.51 µM in experiment [1]; 2.57 µM in experiment [2]; 2.57 µM in experiment [3]; 4.84 µM in experiment [4]; 38.4 µM in experiment [5]; 4.83 µM in experiment [6]. In addition, the GI50 in experiment [7] was 5.34 µM. Further, the TGI in experiment [1] is 12.1 µM; in experiment [2] it was 6.72 µM; in experiment [3] it was 7.11 µM; in experiment [4] it was 23.6 µM; in experiment [5], more than 100 µM; in experiment [6], 46.6 µM. In addition, the TGI in experiment [7] turned out to be 18.8 µM.

On to `CC/C=C\C[C@H]1C/C=C2/C(=O)C=C[C@@H]2C/C=C\CCCC(=O)O1`, for which the GI50 is 1.78 µM in experiment [1]; 2.16 µM in experiment [2]; 0.986 µM in experiment [3]; 0.779 µM in experiment [4]; 0.353 µM in experiment [5]; 1.31 µM in experiment [6]. Moreover, the GI50 in experiment [7] was 0.637 µM. Further, the TGI in experiment [1] was 5.23 µM; in experiment [2], 9.49 µM; in experiment [3], 4.34 µM; in experiment [4] it was 2.49 µM; in experiment [5], more than 54.5 µM; in experiment [6] it was 3.73 µM. For the same molecule, the TGI in experiment [7] worked out at 1.89 µM.

For `COc1cc(/C=C/c2ccc(OC)c(OC)c2)cc(OC)c1`, the TGI in experiment [1] was more than 100 µM; in experiment [2], more than 100 µM; in experiment [3], 96.6 µM; in experiment [4], 69 µM; in experiment [5] it was more than 100 µM; in experiment [6] it was more than 100 µM. For the same molecule, in experiment [7], the TGI worked out at 44.7 µM.

Take `CC1=C(C(=O)Nc2ccc(F)c(Cl)c2)C(c2cccc(O)c2)NC(=O)N1` (stereo not drawn): the GI50 in experiment [1] is 54.3 µM; in experiment [2], 98 µM; in experiment [3] it was more than 100 µM; in experiment [4], more than 100 µM; in experiment [5], 73.5 µM; in experiment [6] it was 63.9 µM. Moreover, the GI50 in experiment [7] was more than 100 µM. In addition, the TGI in experiment [1], in experiment [2], in experiment [3], in experiment [4], in experiment [5] and in experiment [6] was more than 100 µM throughout. The TGI in experiment [7] was more than 100 µM.

Turning to `O=S(=O)(Nc1cc(Sc2cccc3cccnc23)c(O)c2ccccc12)c1ccccc1`, the GI50 in experiment [1] was 1.87 µM; in experiment [2], 1.48 µM; in experiment [3], 0.798 µM; in experiment [4], 0.78 µM; in experiment [5], 0.929 µM; in experiment [6], 0.467 µM. Moreover, in experiment [7], the GI50 was 0.79 µM. Also, the TGI in experiment [1] was determined as 5.01 µM; in experiment [2], 12.8 µM; in experiment [3] it was 3.6 µM; in experiment [4], 24.2 µM; in experiment [5], 16.5 µM; in experiment [6], 13.1 µM. In experiment [7], the TGI stood at 10.7 µM.

For the molecule `CC1=C[C@H]2c3c(c(O)c(O)c4oc(-c5ccccc5)cc(=O)c34)[C@H](c3cc(O)c(O)c4oc(-c5ccccc5)cc(=O)c34)[C@H]2C(C)(C)C1`, the GI50 is 1.72 µM in experiment [1]; 0.541 µM in experiment [2]; 1.09 µM in experiment [3]; 0.415 µM in experiment [4]; 0.294 µM in experiment [5]; 1.44 µM in experiment [6]. The GI50 in experiment [7] was 1.71 µM. For the same molecule, the TGI is 9.47 µM in experiment [1]; 17 µM in experiment [2]; 7.31 µM in experiment [3]; 18.7 µM in experiment [4]; more than 75 µM in experiment [5]; 14.8 µM in experiment [6]. This molecule also came in with a TGI in experiment [7] of 7.83 µM.

The record behind these values is PubChem BioAssay (NCI).
